Earlier results on one molecule are cited in patent US20160361357A1, “STABLE HIGH CONCENTRATION STRONTIUM COMPOUNDS AND FORMULATIONS FOR TOPICAL APPLICATION” (Cosmederm Bioscience, Inc., priority 2015, published 2016).

The subject of one data set is TCN. Conditions: strontium mixed with 70% glycolic acid, pH 0.6 chemical peel.
A further data set deals with synaptotagmin-1 (Homo sapiens, UniProt P21579). Conditions: strontium substitutes for calcium; response to TCN activation.
Chain of synaptotagmin-1 (P21579 whole entry, species assumed): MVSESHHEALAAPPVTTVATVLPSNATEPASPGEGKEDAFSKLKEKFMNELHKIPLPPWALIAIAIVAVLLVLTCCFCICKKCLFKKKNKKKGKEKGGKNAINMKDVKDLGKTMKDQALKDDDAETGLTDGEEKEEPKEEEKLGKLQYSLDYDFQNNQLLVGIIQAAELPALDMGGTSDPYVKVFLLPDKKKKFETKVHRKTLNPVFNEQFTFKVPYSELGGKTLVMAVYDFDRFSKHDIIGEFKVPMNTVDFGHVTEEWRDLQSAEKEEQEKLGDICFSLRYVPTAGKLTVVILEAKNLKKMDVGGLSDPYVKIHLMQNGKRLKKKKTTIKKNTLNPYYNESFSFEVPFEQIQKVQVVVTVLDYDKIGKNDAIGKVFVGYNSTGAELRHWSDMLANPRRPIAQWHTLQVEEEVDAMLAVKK

Regarding `[Sr+2]` [strontium], the “burning pain and stinging suppressed” value in the data set with TCN was ≥ 80%. Further, the “reduction of amplitude of synchronous neurotransmitter release” value at synaptotagmin-1 is reported as “more than 90%”.
